{"source": "paper PMC8359193", "about": "“Summary of reference chemicals evaluated by the fish short‐term reproduction assay, OECD TG229, using Japanese Medaka, Oryzias latipes” (Journal of Applied Toxicology, 2021)", "test_system": "Japanese medaka (Oryzias latipes)", "test": "Fish short-term reproduction assay (FSTRA, OECD TG229), 21-day flow-through exposure", "details": "for Fertility rate (%) / Mortality (%) Female / Mortality (%) Male / Number of fertilized eggs / Number of total eggs / SSC Female / SSC Male / VTG (ng/mg of liver) Female / VTG (ng/mg of liver) Male: 21 days; for GSI Female / GSI Male / HSI Female / HSI Male / Length Female / Length Male / Weight Female / Weight Male: at completion of exposure", "summary_of_the_method": "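Run to OECD TG229: mature NIES-R medaka pairs (3♂/3♀ per vessel, 4 vessels per treatment plus dilution water control) were dosed by continuous flow-through for 21 days. Test concentrations were spaced 2- to 5-fold. Daily spawned eggs were counted under the microscope for fertilized versus unfertilized.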"}
{"smiles": "C[C@]12C=CC3=C4CCC(=O)C=C4CC[C@H]3[C@@H]1CC[C@@H]2O", "note": "[TRB, 17β‐Trenbolone]", "values": [{"measurement": "LOEC on female SSC (papillary process formation on anal fin)", "setting": "21-day exposure, measured conc.", "result": 26.8, "unit": "ng/L"}, {"measurement": "Fertility rate (%)", "setting": "measured conc. 8.03 ng/L", "result": 95, "unit": "%"}, {"measurement": "Mortality (%) Female", "setting": "measured conc. 8.03 ng/L", "result": 0, "unit": "%"}, {"measurement": "Mortality (%) Male", "setting": "measured conc. 8.03 ng/L", "result": 0, "unit": "%"}, {"measurement": "Number of fertilized eggs", "setting": "measured conc. 8.03 ng/L", "result": 26}, {"measurement": "Number of total eggs", "setting": "measured conc. 8.03 ng/L", "result": "27 ± 3.5 /female/day"}, {"measurement": "SSC Female", "setting": "measured conc. 8.03 ng/L", "result": "0 ± 0"}, {"measurement": "SSC Male", "setting": "measured conc. 8.03 ng/L", "result": "86 ± 3.9"}, {"measurement": "VTG (ng/mg of liver) Female", "setting": "measured conc. 8.03 ng/L", "result": "736 ± 147 ng/mg of liver"}, {"measurement": "VTG (ng/mg of liver) Male", "setting": "measured conc. 8.03 ng/L", "result": "3.7 ± 3.2 ng/mg of liver"}, {"measurement": "GSI Female", "setting": "measured conc. 8.03 ng/L", "result": 9.7, "unit": "%"}, {"measurement": "GSI Male", "setting": "measured conc. 8.03 ng/L", "result": 1.04, "unit": "%"}, {"measurement": "HSI Female", "setting": "measured conc. 8.03 ng/L", "result": 5.4, "unit": "%"}, {"measurement": "HSI Male", "setting": "measured conc. 8.03 ng/L", "result": 1.8, "unit": "%"}, {"measurement": "Length Female", "setting": "measured conc. 8.03 ng/L", "result": 36.4, "unit": "mm"}, {"measurement": "Length Male", "setting": "measured conc. 8.03 ng/L", "result": 36.7, "unit": "mm"}, {"measurement": "Weight Female", "setting": "measured conc. 8.03 ng/L", "result": 573, "unit": "mg"}, {"measurement": "Weight Male", "setting": "measured conc. 8.03 ng/L", "result": 502, "unit": "mg"}, {"measurement": "Fertility rate (%)", "setting": "measured conc. 26.8 ng/L", "result": 93, "unit": "%"}, {"measurement": "Mortality (%) Female", "setting": "measured conc. 26.8 ng/L", "result": 0, "unit": "%"}, {"measurement": "Mortality (%) Male", "setting": "measured conc. 26.8 ng/L", "result": 0, "unit": "%"}, {"measurement": "Number of fertilized eggs", "setting": "measured conc. 26.8 ng/L", "result": 22}, {"measurement": "Number of total eggs", "setting": "measured conc. 26.8 ng/L", "result": "24 ± 2.6 /female/day"}, {"measurement": "SSC Female", "setting": "measured conc. 26.8 ng/L", "result": "6.6 ± 6.1"}, {"measurement": "SSC Male", "setting": "measured conc. 26.8 ng/L", "result": "101 ± 17"}, {"measurement": "VTG (ng/mg of liver) Female", "setting": "measured conc. 26.8 ng/L", "result": "696 ± 211 ng/mg of liver"}, {"measurement": "VTG (ng/mg of liver) Male", "setting": "measured conc. 26.8 ng/L", "result": "6.5 ± 3.8 ng/mg of liver"}, {"measurement": "GSI Female", "setting": "measured conc. 26.8 ng/L", "result": 11.3, "unit": "%"}, {"measurement": "GSI Male", "setting": "measured conc. 26.8 ng/L", "result": 1.06, "unit": "%"}, {"measurement": "HSI Female", "setting": "measured conc. 26.8 ng/L", "result": 5.5, "unit": "%"}, {"measurement": "HSI Male", "setting": "measured conc. 26.8 ng/L", "result": 2.1, "unit": "%"}, {"measurement": "Length Female", "setting": "measured conc. 26.8 ng/L", "result": 35.6, "unit": "mm"}, {"measurement": "Length Male", "setting": "measured conc. 26.8 ng/L", "result": 37.3, "unit": "mm"}, {"measurement": "Weight Female", "setting": "measured conc. 26.8 ng/L", "result": 515, "unit": "mg"}, {"measurement": "Weight Male", "setting": "measured conc. 26.8 ng/L", "result": 500, "unit": "mg"}, {"measurement": "Fertility rate (%)", "setting": "measured conc. 84.6 ng/L", "result": 90, "unit": "%"}, {"measurement": "Mortality (%) Female", "setting": "measured conc. 84.6 ng/L", "result": 0, "unit": "%"}, {"measurement": "Mortality (%) Male", "setting": "measured conc. 84.6 ng/L", "result": 0, "unit": "%"}, {"measurement": "Number of fertilized eggs", "setting": "measured conc. 84.6 ng/L", "result": 9.1}, {"measurement": "Number of total eggs", "setting": "measured conc. 84.6 ng/L", "result": "10 ± 2.4 /female/day"}, {"measurement": "SSC Female", "setting": "measured conc. 84.6 ng/L", "result": "48 ± 6.7"}, {"measurement": "SSC Male", "setting": "measured conc. 84.6 ng/L", "result": "104 ± 8.1"}, {"measurement": "VTG (ng/mg of liver) Female", "setting": "measured conc. 84.6 ng/L", "result": "658 ± 102 ng/mg of liver"}, {"measurement": "VTG (ng/mg of liver) Male", "setting": "measured conc. 84.6 ng/L", "result": "4.9 ± 4.3 ng/mg of liver"}, {"measurement": "GSI Female", "setting": "measured conc. 84.6 ng/L", "result": 16.1, "unit": "%"}, {"measurement": "GSI Male", "setting": "measured conc. 84.6 ng/L", "result": 1.11, "unit": "%"}, {"measurement": "HSI Female", "setting": "measured conc. 84.6 ng/L", "result": 3.7, "unit": "%"}, {"measurement": "HSI Male", "setting": "measured conc. 84.6 ng/L", "result": 2.1, "unit": "%"}, {"measurement": "Length Female", "setting": "measured conc. 84.6 ng/L", "result": 36.1, "unit": "mm"}, {"measurement": "Length Male", "setting": "measured conc. 84.6 ng/L", "result": 37.7, "unit": "mm"}, {"measurement": "Weight Female", "setting": "measured conc. 84.6 ng/L", "result": 625, "unit": "mg"}, {"measurement": "Weight Male", "setting": "measured conc. 84.6 ng/L", "result": 524, "unit": "mg"}, {"measurement": "Fertility rate (%)", "setting": "measured conc. 291 ng/L", "result": 74, "unit": "%"}, {"measurement": "Mortality (%) Female", "setting": "measured conc. 291 ng/L", "result": 0, "unit": "%"}, {"measurement": "Mortality (%) Male", "setting": "measured conc. 291 ng/L", "result": 0, "unit": "%"}, {"measurement": "Number of fertilized eggs", "setting": "measured conc. 291 ng/L", "result": 0.9}, {"measurement": "Number of total eggs", "setting": "measured conc. 291 ng/L", "result": "1.2 ± 0.5 /female/day"}, {"measurement": "SSC Female", "setting": "measured conc. 291 ng/L", "result": "76 ± 3.9"}, {"measurement": "SSC Male", "setting": "measured conc. 291 ng/L", "result": "103 ± 8.4"}, {"measurement": "VTG (ng/mg of liver) Female", "setting": "measured conc. 291 ng/L", "result": "641 ± 200 ng/mg of liver"}, {"measurement": "VTG (ng/mg of liver) Male", "setting": "measured conc. 291 ng/L", "result": "4.5 ± 2.1 ng/mg of liver"}, {"measurement": "GSI Female", "setting": "measured conc. 291 ng/L", "result": 18.8, "unit": "%"}, {"measurement": "GSI Male", "setting": "measured conc. 291 ng/L", "result": 1.10, "unit": "%"}, {"measurement": "HSI Female", "setting": "measured conc. 291 ng/L", "result": 3.4, "unit": "%"}, {"measurement": "HSI Male", "setting": "measured conc. 291 ng/L", "result": 1.8, "unit": "%"}, {"measurement": "Length Female", "setting": "measured conc. 291 ng/L", "result": 37.3, "unit": "mm"}, {"measurement": "Length Male", "setting": "measured conc. 291 ng/L", "result": 37.0, "unit": "mm"}, {"measurement": "Weight Female", "setting": "measured conc. 291 ng/L", "result": 691, "unit": "mg"}, {"measurement": "Weight Male", "setting": "measured conc. 291 ng/L", "result": 504, "unit": "mg"}, {"measurement": "effect on fecundity (number of total eggs), in words", "setting": "within the test concentrations, 21-day exposure", "result": "significantly reduced"}]}
